“And” between values parts separate entries of the source, which are not always exact repeats. Equal entries are not always repeated. “Also recorded” adds a separate entry of the source. Square brackets hold non-standard residues; d marks the D form. Peptide text beside a SMILES is read from it. dNMeL = CN[C@H](CC(C)C)C(=O)O
Legend:
[1] = solubility in aqueous solutions; type: physicochemical; conditions: over a wide range of pH values
From the text: The two positively charged arginine side chains assist the peptide to penetrate cell membranes and the blood-brain barrier by making electrostatic interactions with the negatively charged phosphate head groups of their constituent phospholipid molecules, resulting in the formation of inverted micelles which carry the peptide molecules across these membranes.

[2] = target: T1, Alzheimer's Aβ peptide fragment (Homo sapiens, UniProt P05067); assay: electron microscopy of Aβ peptide fragment aggregation; type: biochemical; conditions: 500 mM (so in the source) Peptide X, FIGS. 6 and 7
T1 construct: residues 11 to 25 of the Alzheimer's Aβ peptide
Experimental: Peptide X (SEQ ID NO: 2) was dissolved in water to a concentration of 10 mM (about 10 mg/ml). Alzheimer's Aβ peptide fragment, at a concentration of 50/M (about 0.1 mg/ml) in 50 mM sodium acetate buffer (pH 5.0), was incubated at 25° C. in the absence or presence of Peptide X (SEQ ID NO: 2) at concentrations ranging from 100 μM to 1 mM; the aggregation of the Aβ peptide fragment into insoluble β-fibres in the solutions was determined quantitatively after 20 minutes by measuring the fluorescence of 1%M added thioflavin T at 482 nm using an excitation wavelength of 440 nm. […] aliquots of these solutions were then analysed by electron microscopy to confirm that Peptide X (SEQ ID NO: 2) had inhibited and/or reversed the aggregation of the Alzheimer's Aβ peptide fragment into insoluble β-fibres.

[3] = target: T2, synthetic peptide fragment corresponding to residues 11 to 25 of the Alzheimer's Aβ peptide (Homo sapiens, UniProt P05067); assay: thioflavin T fluorescence assay of Aβ peptide fragment aggregation into amyloid fibrils; type: biochemical
T2 construct: residues 11 to 25 of the Alzheimer's Aβ peptide
Experimental: Peptide X (SEQ ID NO: 2) was dissolved in water to a concentration of 10 mM (about 10 mg/ml). […]

solubility [1]: ≥ 10000 µM and ≥ 10000 µg/mL | inhibition at 200 µM ([3]; 200 μM Peptide X, Aβ fragment in 50 mM sodium acetate pH 5.0, 25° C., 20 minutes, FIG. 5): > 60% | reduction in Alzheimer's Aβ peptide aggregation ([3]; Peptide X concentration of 100 mM (so in the source), FIG. 5): 50%
Compound: CC(=O)N[C@H](CC(C)C)C(=O)N(C)[C@H](CC(C)C)C(=O)N[C@H](CC(C)C)C(=O)N(C)[C@H](CC(C)C)C(=O)N[C@H](CCCNC(=N)N)C(=O)N[C@H](CCCNC(=N)N)C(N)=O [Peptide X, Nα-acetyl-(D-leucine)-(Nα-methyl-D-leucine)-(D-leucine)-(Nα-methyl-D-leucine)-(D-arginine)-(D-arginine)-NH2] (Ac-[dL][dNMeL][dL][dNMeL][dR][dR]-NH2)
inhibition of aggregation of Aβ peptide fragment into amyloid fibrils by electron microscopy [2]: almost completely inhibited aggregation; also recorded: substantial elimination of aggregation | disaggregation of preformed amyloid fibrils ([3]; Peptide X added to the Aβ peptide fragment after incubation): able to disaggregate preformed amyloid fibrils
